Results from patent US20100160408A1, “VILDAGLIPTIN FOR TREATING GENERAL PERIPHERAL NEUROPATHIES” (priority 2004, published 2010).

Columns and labels:
[1] = tested on: aged rats; experiment: Passive avoidance learning test in aged rats; type: in vivo; conditions: repeated oral administration, vildagliptin 3 mg/kg and/or donepezil 0.3 mg/kg, test started on day 14 of treatment, versus control group
Source text: (§1) The ameliorative effect of vildagliptin or the combined use of vildagliptin with the compounds having cholinesterase inhibitory activity on learning deficits is investigated in aged rats.
(§2) Methods Male (3 to 27 months old) rats of transgenic strain are used. The aged rats are divided into the following four groups (the active ingredient dosage can be adapted by the person skilled in the art).
(§3) 1) Control group: Repeated administration of placebo pill.
(§4) 2) Vildagliptin group: Repeated oral administration of vildagliptin 3 mg/kg.
(§5) Passive avoidance learning test is started on day 14 of treatment, and Morris water maze learning test on day 20 of treatment.
(§6) On each day of experiment, vildagliptin arid/or a cholinesterase inhibitor are administered 30 minutes and 1 hour, respectively, before initiation of the trial.
Passive Avoidance Learning: The passive avoidance learning test is performed using a chamber consisting of light and dark compartments. […] After a mouse moves to the dark compartment, the mouse is kept there for about 10 seconds with the door closed. One to two hours after the habituation trial, acquisition trial is performed. […]
In each trial, the latency from opening of the slide door until the animal moved to the dark compartment (step-through latency) is measured.

[2] = tested on: aged rats; experiment: Morris water maze learning test in aged rats; type: in vivo; conditions: repeated oral administration, vildagliptin 3 mg/kg and/or donepezil 0.3 mg/kg, test started on day 20 of treatment, versus control group
Source text: as §1, §2, §3, §4, §5, §6
Morris Water Maze Learning Same animals used in the passive avoidance test are subjected for the water maze task. However, some rats can not swim well in the water tank, thus they are excluded in the water maze task.
In pretraining which is performed for swimming training and motivation for escaping from water, four trials are performed using a water bath, 80 cm in diameter, in a condition that the platform is visible. […]

N#C[C@@H]1CCCN1C(=O)CNC12CC3CC(CC(O)(C3)C1)C2 [vildagliptin, (S)-1-[(3-hydroxy-1-adamantyl)amino]acetyl-2-cyano-pyrrolidine]
learning deficit in passive avoidance learning (step-through latency / avoidance time) [1]: significant improvement of the learning deficit | water maze learning deficit (latency to find platform submerged in the water) [2]: significant improvement in water maze learning deficit
